Where two headings read alike, the source gives them in different places.
Legend:
[1] = bovine
Experimental: (§15) Fetal calf serum purchased from HyClone Corporation was mixed 1:1 with each compound containing Tris-HCl buffer and MgCl2. Typically the total volume used for the experiment was 500 μl.
(§16) The final concentrations of the reaction components were as follows:
(§17) The reaction mixtures were made up and incubated at 37° C. At appropriate times aliquots of 25 μl were removed and added to 65 μl ice-cold methanol. These solutions were incubated for at least one hour at −20° C. and typically overnight. After incubation samples were centrifuged for at least 20 minutes at high speed in a microcentrifuge. The supernatant was transferred to a clean tube and the extract was dried under vacuum in a LabConco Centrivap Concentrator. The dried extracts were resuspended in dH2O and filtered to remove particulate before analysis on reverse phase HPLC.
(§18) The reverse phase HPLC columns used for the analysis were either a Phenomenex C18 Aqua column (2×100 mm) or the Phenomenex C18 Aqua column (3×150 mm) used with the appropriate guard column. The HPLC was run at 0.2 ml/min (for the 2×100 mm column) or at 0.5 ml/min (for the 3×150 mm column) with the following buffer system: 5 mM tetrabutylammonium acetate, 50 nM ammonium phosphate, and an acetonitrile gradient running from 5% up to as high as 60%. The amount of remaining parent compound at each time point was used to determine the half-life of the compound. […] Unmodified nucleoside monophosphates were used as positive controls.

in vitro = conditions: bovine, 10% (v/v) fetal calf serum, pH 7.4
Experimental: as §15, §16, §17, §18

[2] = target: purified Candida albicans IMPDH (Candida albicans, UniProt O00086); experiment: Assay for inhibition of IMPDH activity (C. albicans); format: biochemical; conditions: for Ki: C. albicans IMPDH, 50 uM IMP, 150 uM NAD, 25° C.; for inhibition at 100 µM: read-out: % Inhibition at 100 μM C. albicans
Experimental: (§1) The assays employed to measure the inhibition of inosine monophosphate dehydrogenase (IMPDH) activity are described below. The effectiveness of the compounds of the present invention as inhibitors of IMPDH enzymes was determined in the following assays. This assay was used to measure the ability of the nucleotide mimics of the present invention to inhibit the enzymatic reaction catalyzed by IMPDH enzymes. The assay is useful for measuring the activity of IMPDH from several organisms, including human, fungal, and bacterial isoforms. In the enzymatic reaction, the oxidation of inosine 5′-monophosphate (IMP) to xanthosine 5′-monophosphate (XMP) is coupled to the reduction of nicotinamide adenine dinucleotide (NAD). This reaction is monitored at 340 nm using a UV/VIS spectrophotometer or at 474 nm using a fluorometer (excitation wavelength=344 nm). This assay is a modification of a reported method (W. Wang and L. Hedstrom, “A Potent ‘Fat Base’ Nucleotide Inhibitor of IMP Dehydrogenase,” Biochemistry 1998, 37, 11949-52).
(§2) Assay Buffer Conditions: (200 uL-total/reaction)
(§3) 30 nM purified human type II IMPDH, or
(§4) 7.5 nM purified Candida albicans IMPDH
(§5) The compounds were tested at various concentrations up to 500 uM final concentration. The standard IMPDH assay is performed in a 96-well plate (Corning). An appropriate volume of assay buffer, containing the substrates IMP and NAD, was pipetted into the plate wells. Nucleoside derivatives of the present invention were added to the reactions at the desired concentrations. The reactions were initiated by the addition of enzyme. The reactions were allowed to proceed for 5 minutes at 25° C. The production of NADH was monitored at 340 nm on a microplate spectrophotometer (Molecular Devices Corp, Sunnyvale, Calif.). Initial velocity data (mA min^−1) was collected and fit to the equations below. Blank reactions were prepared in parallel with the test reactions in which enzyme was omitted from the reactions, substituted by an appropriate volume of enzyme diluent.
(§6) The percentage of inhibition was calculated according to the following equation:
(§7) % Inhibition=[1−(mA min^−1 in test reaction−mA min^−1 in blank)/(mA min^−1 in control reaction−mA min^−1 in blank)]×100.
(§8) Each inhibitor was titrated over an appropriate range of concentrations, and inhibition constants were determined using the following equations where v=initial velocity, Vm=maximal velocity, S=substrate, I=inhibitor, Km=Michaelis constant, and Ki=inhibition constant:
(§9) Michaelis-Menten Equation: […]
(§10) Competitive Inhibition Equation:
(§11) Inhibition constants (Ki) for irreversible inhibitors of IMPDH were determined using the following three equations where kobs=observed rate constant, t=time, A=absorbance at time t, A0=initial absorbance at time zero, V0=initial rate, S=substrate, I=inhibitor, k2=[…] rate constant, Km=Michaelis constant, Ki, app=apparent inhibition constant, and Ki=inhibition constant:
(§12) Irreversible Inhibition Equations 1-3:
(§13) A−A0=V0[1−exp(−kobst)] (equation 1)
(§14) Kobs=k2[I]/(Ki, app+[I]) (equation 2)

[3] = target: purified human type II IMPDH (Homo sapiens, UniProt P12268); experiment: Assay for inhibition of IMPDH activity (human type II); format: biochemical; conditions: 50 uM IMP, 150 uM NAD, 25° C.
Experimental: as §1, §2, §3, §4, §5, §6, §7, §8, §9, §10, §11, §12, §13, §14

[4] = Serum stability assessment in fetal calf serum; conditions: 10% (v/v) fetal calf serum, 37° C., 500 μM nucleotide mimic, time points through 24 hours
Experimental: as §15, §16, §17, §18

Chain of purified Candida albicans IMPDH (O00086 whole entry, canonical isoform): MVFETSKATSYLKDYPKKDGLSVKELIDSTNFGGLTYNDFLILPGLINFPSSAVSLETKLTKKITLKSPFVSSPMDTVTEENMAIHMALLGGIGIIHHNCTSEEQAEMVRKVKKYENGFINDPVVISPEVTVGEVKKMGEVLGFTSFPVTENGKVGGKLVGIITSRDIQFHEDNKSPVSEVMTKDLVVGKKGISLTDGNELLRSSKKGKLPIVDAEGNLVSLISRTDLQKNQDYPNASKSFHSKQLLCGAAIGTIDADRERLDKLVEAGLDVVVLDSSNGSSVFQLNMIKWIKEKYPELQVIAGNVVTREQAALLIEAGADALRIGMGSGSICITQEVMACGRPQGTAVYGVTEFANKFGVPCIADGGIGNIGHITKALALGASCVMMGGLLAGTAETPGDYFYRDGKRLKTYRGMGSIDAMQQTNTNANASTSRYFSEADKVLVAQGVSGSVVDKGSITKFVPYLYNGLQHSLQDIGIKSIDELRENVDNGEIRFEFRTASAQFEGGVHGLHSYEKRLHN

Molecule	Ki [2] [µM]	Ki [3] [µM]	other results
5-Ethynyl-1-(5-methylphopsphonyl-β-D-ribofuranosyl)imidazole-4-carboxamide [Compound 10]			Serum t1/2 [1]: >8 h
NC(=O)c1ncn([C@@H]2O[C@H](COP(=O)(O)S)[C@H](O)C2O)n1 (stereo partly drawn) [Compound 1, 1-β-D-ribofuranosyl-1,2,4-triazole-3-carboxamide 5′-phosphothioate]	1.34	0.94	half-life at 500 μM (in vitro): 18 h
C#Cc1c(C(N)=O)ncn1[C@@H]1O[C@H](COP(=O)(O)S)[C@H](O)C1O (stereo partly drawn) [Compound 2, 5-Ethynyl-1-(1-D-ribofuranosyl)imidazole-4-carboxamide 5′-phosphorothioate]		34.2	inhibition at 100 µM [2]: 82%
NC(=O)c1ncn([C@@H]2O[C@H](COCP(=O)(O)O)[C@@H](O)[C@H]2O)n1 [Compound 19, 1-[5-O-(Dihydroxyphosphinyl)methyl-β-D-ribofuranosyl]-1,2,4-triazole-3-carboxamide]		85	
NC(=O)c1ncn([C@@H]2O[C@H](CP(=O)(O)O)[C@@H](O)[C@H]2O)n1 [Compound 39, 1-[5-Deoxy-5-(dihydroxyphosphinyl)-β-D-ribofuranosyl]-1,2,4-triazole-3-carboxamide]	1.48	1.82	
NC(=O)c1ncn([C@@H]2O[C@H](C[PH](=O)O)[C@H](O)C2O)n1 (stereo partly drawn) [Compound 40, 1-[5-Deoxy-5-(hydroxyl-H-phosphinyl)-β-D-ribofuranosyl]-11,24-triazole-3-carboxamide]			half-life at 500 μM (in vitro): > 24 h
NC(=O)c1ncn([C@@H]2O[C@H](CP(=O)(O)O)[C@H](O)C2O)c1O (stereo partly drawn) [Compound 44, 4-Carbamoyl-1-[5-deoxy-5-(dihydroxyphosphinyl)-β-D-ribofuranosyl]-1,3-imidazolium-5-olate]		7.92	inhibition at 100 µM [2]: 98.1%
NC(=O)c1ncn([C@@H]2O[C@H](CC(F)(F)P(=O)(O)O)[C@H](O)C2O)n1 (stereo partly drawn) [Compound 48]	20.4	27.1	half-life at 500 μM (in vitro): > 24 h
NC(=O)c1ncn([C@@H]2O[C@H](CC(F)(F)P(=O)(O)O)[C@H](O)C2O)c1O (stereo partly drawn) [Compound 50, 4-Carbamoyl-1-[5,6-dideoxy-6-(dihydroxyphosphinyl)-6,6-difluoro-β-D-allofuranosyl]-1,3-imidazolium-5-olate]		2.04	inhibition at 100 µM [2]: 71.5%
NC(=O)c1ncn([C@@H]2O[C@H](CO[PH](O)=S)[C@H](O)C2O)n1 (stereo partly drawn) [Compound 53, 1-[5-O-(H-Thiophosphonyl)-β-D-ribofuranosyl]-1,2,4-triazole-3-carboxamide]	10.7	34.7	
C#Cc1c(C(N)=O)ncn1[C@@H]1O[C@H](COP(=O)(O)O)[C@@H](O)[C@H]1O [EICAR 5′-monophosphate]			Serum t1/2 [4]: 3 h
NC(=O)c1ncn([C@@H]2O[C@H](COP(=O)(O)O)[C@@H](O)[C@H]2O)n1 [Ribavirin 5′-monophosphate]			Serum t1/2 [4]: 6 h

— US20040023901A1, “Nucleoside 5'-monophosphate mimics and their prodrugs” (priority 2002, published 2004)
